Data published in patent US20120029196A1, “PURIFICATION 4-AZA-ANDROST-1-ENE-17-OIC ACID FROM 4-AZA-ANDROSTAN-17-OIC ACID” (PHF S.A., priority 2009, published 2012).

Experiment: solubility in solvents at 25° C.
Format: physicochemical
[1] = solvent Toluene, LOD = Limit Of Detection

| solubility at 25° C. (solvent Acetic Acid) | solubility at 25° C. (solvent Acetone) | solubility at 25° C. (solvent DMF) | solubility at 25° C. (solvent Ethyl acetate) | solubility at 25° C. (solvent Formic Acid) | solubility at 25° C. (solvent MTBE) | solubility at 25° C. (solvent Methanol) | solubility at 25° C. (solvent Methylene chloride) | solubility at 25° C. (solvent Propionic Acid) | solubility at 25° C. [1] | solubility in formic acid (comparison in words) (formic acid) | Structure (SMILES) |
| --- | --- | --- | --- | --- | --- | --- | --- | --- | --- | --- | --- |
| 8.1 % w/w | 0.06 % w/w | 2.4 % w/w | 0.02 % w/w | 7.7 % w/w | 0.009 % w/w | 0.6 % w/w | 0.04 % w/w | 6.6 % w/w | <LOD |  | C[C@]12CC[C@H]3[C@@H](CCC4NC(=O)C=C[C@@]43C)[C@@H]1CC[C@@H]2C(=O)O (stereo partly drawn) [Intermediate 1] |
| 3.69 % w/w | 0.008 % w/w | 0.40 % w/w | 0.003 % w/w | 20.32 % w/w | 0.001 % w/w | 0.16 % w/w | 0.008 % w/w | 3.10 % w/w | <LOD | higher than Intermediate 1 | C[C@]12CC[C@H]3[C@@H](CCC4NC(=O)CC[C@@]43C)[C@@H]1CC[C@@H]2C(=O)O (stereo partly drawn) [Intermediate 2] |
